Experimental data reported in patent publication US20240239861A1, “GLUCAGON-RECEPTOR SELECTIVE POLYPEPTIDES AND METHODS OF USE THEREOF” (i2O Therapeutics, Inc., priority 2016, published 2024).
pEC50: −log10 of the molar value. Where a SMILES comes first, the peptide text is derived from it. [ ]: non-standard residue; d: D form. Aib = CC(C)(N)C(=O)O

Each compound was assayed against human GLP-1R (Homo sapiens, UniProt P43220) (assay: Peptide-receptor mediated cAMP accumulation (LANCE Ultra cAMP) in CHO-K1 cells transfected with human GLP-1R). Details: hGLP1 pEC50 (cAMP mean (n = 3): 11 point curve starting at 1 nM, Table 3).
Format: cell-based

human GLP-1R, sequence (P43220 24-463): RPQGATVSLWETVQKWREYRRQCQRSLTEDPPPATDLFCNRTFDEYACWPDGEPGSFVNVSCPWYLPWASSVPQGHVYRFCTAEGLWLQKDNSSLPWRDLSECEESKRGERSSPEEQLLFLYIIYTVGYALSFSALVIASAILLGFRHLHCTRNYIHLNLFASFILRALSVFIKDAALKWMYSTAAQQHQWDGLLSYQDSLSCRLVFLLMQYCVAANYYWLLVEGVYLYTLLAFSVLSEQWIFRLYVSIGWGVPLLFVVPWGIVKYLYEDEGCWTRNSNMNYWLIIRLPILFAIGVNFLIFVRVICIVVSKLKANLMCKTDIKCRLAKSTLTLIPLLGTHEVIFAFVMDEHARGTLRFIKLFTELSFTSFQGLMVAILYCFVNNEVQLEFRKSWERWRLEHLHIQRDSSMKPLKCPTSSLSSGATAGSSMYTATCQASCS

pEC50	Compound
< 9.00	CC(C)C[C@H](NC(=O)[C@H](Cc1ccc(O)cc1)NC(=O)[C@H](CCCCN)NC(=O)[C@H](CO)NC(=O)[C@H](Cc1ccc(O)cc1)NC(=O)[C@H](CC(=O)O)NC(=O)[C@H](CO)NC(=O)[C@@H](NC(=O)[C@H](Cc1ccccc1)NC(=O)[C@@H](NC(=O)CNC(=O)[C@H](Cc1c[nH]cn1)NC(=O)[C@H](CO)NC(=O)[C@@H](N)Cc1ccc(O)cc1)[C@@H](C)O)[C@@H](C)O)C(=O)N[C@@H](CC(=O)O)C(=O)NC(C)(C)C(=O)N[C@@H](CCCCN)C(=O)N[C@@H](CCCNC(=N)N)C(=O)N[C@@H](C)C(=O)N[C@@H](CCC(N)=O)C(=O)N[C@@H](CCC(=O)O)C(=O)N[C@@H](Cc1ccccc1)C(=O)N[C@H](C(=O)NC(C)(C)C(=O)N[C@@H](Cc1c[nH]c2ccccc12)C(=O)N[C@@H](CC(C)C)C(=O)N[C@@H](CCC(=O)O)C(=O)N[C@@H](CC(=O)O)C(=O)N[C@@H](CCC(=O)O)C(=O)N1CCC[C@H]1C(=O)N[C@@H](CO)C(=O)N[C@@H](CO)C(=O)N[C@@H](CCCCN)C(=O)N[C@@H](CO)C(=O)N1CCC[C@H]1C(=O)N1CCC[C@H]1C(=O)N1CCC[C@H]1C(=O)N[C@@H](CO)C(=O)O)C(C)C [Compound A55] (H-YSHGTFTSDYSKYLD[Aib]KRAQEFV[Aib]WLEDEPSSKSPPPS-OH; N-terminus assumed)
< 9.00	CC(C)C[C@H](NC(=O)[C@H](Cc1ccc(O)cc1)NC(=O)[C@H](CCCCN)NC(=O)[C@H](CO)NC(=O)[C@H](Cc1ccc(O)cc1)NC(=O)[C@H](CC(=O)O)NC(=O)[C@H](CO)NC(=O)[C@@H](NC(=O)[C@H](Cc1ccccc1)NC(=O)[C@@H](NC(=O)CNC(=O)[C@H](Cc1c[nH]cn1)NC(=O)[C@H](CO)NC(=O)[C@@H](N)Cc1ccc(O)cc1)[C@@H](C)O)[C@@H](C)O)C(=O)N[C@@H](CC(=O)O)C(=O)NC(C)(C)C(=O)N[C@@H](CCCCN)C(=O)N[C@@H](CCCNC(=N)N)C(=O)N[C@@H](C)C(=O)N[C@@H](CCC(N)=O)C(=O)N[C@@H](CCC(=O)O)C(=O)N[C@@H](Cc1ccccc1)C(=O)N[C@H](C(=O)NC(C)(C)C(=O)N[C@@H](Cc1c[nH]cn1)C(=O)N[C@@H](CC(C)C)C(=O)N[C@@H](CCC(=O)O)C(=O)N[C@@H](CC(=O)O)C(=O)N[C@@H](CCC(=O)O)C(=O)N1CCC[C@H]1C(=O)N[C@@H](CO)C(=O)N[C@@H](CO)C(=O)NCC(=O)N[C@@H](CCCCN)C(=O)N1CCC[C@H]1C(=O)N1CCC[C@H]1C(=O)N1CCC[C@H]1C(=O)N[C@@H](CO)C(=O)O)C(C)C [Compound A89] (H-YSHGTFTSDYSKYLD[Aib]KRAQEFV[Aib]HLEDEPSSGKPPPS-OH; N-terminus assumed)
< 9.00	CC(C)C[C@H](NC(=O)[C@H](Cc1ccc(O)cc1)NC(=O)[C@H](CCCCN)NC(=O)[C@H](CO)NC(=O)[C@H](Cc1ccc(O)cc1)NC(=O)[C@H](CC(=O)O)NC(=O)[C@H](CO)NC(=O)[C@@H](NC(=O)[C@H](Cc1ccccc1)NC(=O)[C@@H](NC(=O)CNC(=O)[C@H](Cc1c[nH]cn1)NC(=O)[C@H](CO)NC(=O)[C@@H](N)Cc1ccc(O)cc1)[C@@H](C)O)[C@@H](C)O)C(=O)N[C@@H](CC(=O)O)C(=O)NC(C)(C)C(=O)N[C@@H](CCCCN)C(=O)N[C@@H](C)C(=O)N[C@@H](C)C(=O)N[C@@H](CCC(N)=O)C(=O)N[C@@H](CCC(=O)O)C(=O)N[C@@H](Cc1ccccc1)C(=O)N[C@H](C(=O)NC(C)(C)C(=O)N[C@@H](Cc1c[nH]c2ccccc12)C(=O)N[C@@H](CC(C)C)C(=O)N[C@@H](CCC(=O)O)C(=O)N[C@@H](CC(=O)O)C(=O)N[C@@H](CCC(=O)O)C(=O)N1CCC[C@H]1C(=O)N[C@@H](CO)C(=O)N[C@@H](CO)C(=O)NCC(=O)N[C@@H](CCCCN)C(=O)N1CCC[C@H]1C(=O)N1CCC[C@H]1C(=O)N1CCC[C@H]1C(=O)N[C@@H](CO)C(=O)O)C(C)C [Compound A90] (H-YSHGTFTSDYSKYLD[Aib]KAAQEFV[Aib]WLEDEPSSGKPPPS-OH; N-terminus assumed)
< 9.00	CC(C)C[C@H](NC(=O)[C@H](Cc1ccc(O)cc1)NC(=O)[C@H](CCCCN)NC(=O)[C@H](CO)NC(=O)[C@H](Cc1ccc(O)cc1)NC(=O)[C@H](CC(=O)O)NC(=O)[C@H](CO)NC(=O)[C@@H](NC(=O)[C@H](Cc1ccccc1)NC(=O)[C@@H](NC(=O)CNC(=O)[C@H](Cc1c[nH]cn1)NC(=O)[C@H](CO)NC(=O)[C@@H](N)Cc1ccc(O)cc1)[C@@H](C)O)[C@@H](C)O)C(=O)N[C@@H](CC(=O)O)C(=O)NC(C)(C)C(=O)N[C@@H](CCCCN)C(=O)N[C@@H](CCCNC(=N)N)C(=O)N[C@@H](C)C(=O)N[C@@H](CCC(N)=O)C(=O)N[C@@H](CCC(=O)O)C(=O)N[C@@H](Cc1ccccc1)C(=O)N[C@H](C(=O)NC(C)(C)C(=O)N[C@@H](Cc1c[nH]c2ccccc12)C(=O)N[C@@H](CC(C)C)C(=O)N[C@@H](CCC(=O)O)C(=O)N[C@@H](CC(=O)O)C(=O)N[C@@H](CCC(=O)O)C(=O)N1CCC[C@H]1C(=O)N[C@@H](CO)C(=O)N[C@@H](CO)C(=O)N[C@@H](CCCCN)C(=O)NCC(=O)N[C@@H](C)C(=O)N1CCC[C@H]1C(=O)N1CCC[C@H]1C(=O)N1CCC[C@H]1C(=O)N[C@@H](CO)C(=O)O)C(C)C [Compound A24] (H-YSHGTFTSDYSKYLD[Aib]KRAQEFV[Aib]WLEDEPSSKGAPPPS-OH)
< 9.00	CC(C)C[C@H](NC(=O)[C@H](Cc1ccc(O)cc1)NC(=O)[C@H](CCCCN)NC(=O)[C@H](CO)NC(=O)[C@H](Cc1ccc(O)cc1)NC(=O)[C@H](CC(=O)O)NC(=O)[C@H](CO)NC(=O)[C@@H](NC(=O)[C@H](Cc1ccccc1)NC(=O)[C@@H](NC(=O)CNC(=O)[C@H](Cc1c[nH]cn1)NC(=O)[C@H](CO)NC(=O)[C@@H](N)Cc1ccc(O)cc1)[C@@H](C)O)[C@@H](C)O)C(=O)N[C@@H](CC(=O)O)C(=O)NC(C)(C)C(=O)N[C@@H](CCCCN)C(=O)N[C@@H](CCCNC(=N)N)C(=O)N[C@@H](C)C(=O)N[C@@H](CCC(N)=O)C(=O)N[C@@H](CCC(=O)O)C(=O)N[C@@H](Cc1ccccc1)C(=O)N[C@H](C(=O)NC(C)(C)C(=O)N[C@@H](Cc1c[nH]c2ccccc12)C(=O)N[C@@H](CC(C)C)C(=O)N[C@@H](CCC(=O)O)C(=O)N[C@@H](CC(=O)O)C(=O)N[C@@H](CCC(=O)O)C(=O)N1CCC[C@H]1C(=O)N[C@@H](CCCCN)C(=O)N[C@@H](CO)C(=O)N[C@@H](CCCCN)C(=O)N[C@@H](CCC(=O)O)C(=O)N1CCC[C@H]1C(=O)N1CCC[C@H]1C(=O)N1CCC[C@H]1C(=O)N[C@@H](CO)C(N)=O)C(C)C [Compound A65] (H-YSHGTFTSDYSKYLD[Aib]KRAQEFV[Aib]WLEDEPKSKEPPPS-NH2; N-terminus assumed)

Compound	pEC50
CC(C)C[C@H](NC(=O)[C@H](CC(=O)O)NC(=O)[C@H](CC(C)C)NC(=O)[C@H](Cc1ccc(O)cc1)NC(=O)[C@H](CCCCN)NC(=O)[C@H](CO)NC(=O)[C@H](Cc1ccc(O)cc1)NC(=O)[C@H](CC(=O)O)NC(=O)[C@H](CO)NC(=O)[C@@H](NC(=O)[C@H](Cc1ccccc1)NC(=O)[C@@H](NC(=O)CNC(=O)[C@H](Cc1c[nH]cn1)NC(=O)[C@H](CO)NC(=O)[C@@H](N)Cc1ccc(O)cc1)[C@@H](C)O)[C@@H](C)O)C(=O)N[C@@H](CCCCN)C(=O)N[C@@H](CCCNC(=N)N)C(=O)N[C@@H](C)C(=O)N[C@@H](CCC(N)=O)C(=O)N[C@@H](CCC(=O)O)C(=O)N[C@@H](Cc1ccccc1)C(=O)N[C@H](C(=O)NC(C)(C)C(=O)N[C@@H](Cc1c[nH]c2ccccc12)C(=O)N[C@@H](CC(C)C)C(=O)N[C@@H](CCC(=O)O)C(=O)N[C@@H](CC(=O)O)C(=O)N[C@@H](CCC(=O)O)C(=O)N1CCC[C@H]1C(=O)N[C@@H](CO)C(=O)N[C@@H](CO)C(=O)NCC(=O)N[C@@H](C)C(=O)N1CCC[C@H]1C(=O)N1CCC[C@H]1C(=O)N1CCC[C@H]1C(=O)N[C@@H](CO)C(=O)O)C(C)C [Compound A51] (H-YSHGTFTSDYSKYLDLKRAQEFV[Aib]WLEDEPSSGAPPPS-OH; N-terminus assumed)	< 9.00
CC(C)C[C@H](NC(=O)[C@H](Cc1ccc(O)cc1)NC(=O)[C@H](CCCCN)NC(=O)[C@H](CO)NC(=O)[C@H](Cc1ccc(O)cc1)NC(=O)[C@H](CC(=O)O)NC(=O)[C@H](CO)NC(=O)[C@@H](NC(=O)[C@H](Cc1ccccc1)NC(=O)[C@@H](NC(=O)CNC(=O)[C@H](Cc1c[nH]cn1)NC(=O)[C@H](CO)NC(=O)[C@@H](N)Cc1ccc(O)cc1)[C@@H](C)O)[C@@H](C)O)C(=O)N[C@@H](CC(=O)O)C(=O)NC(C)(C)C(=O)N[C@@H](CCCCN)C(=O)N[C@@H](CCCNC(=N)N)C(=O)N[C@@H](C)C(=O)N[C@@H](CCC(N)=O)C(=O)N[C@@H](CCC(=O)O)C(=O)N[C@@H](Cc1ccccc1)C(=O)N[C@H](C(=O)NC(C)(C)C(=O)N[C@@H](Cc1c[nH]c2ccccc12)C(=O)N[C@@H](CC(C)C)C(=O)N[C@@H](CCC(=O)O)C(=O)N[C@@H](CCC(=O)O)C(=O)N[C@@H](CCC(=O)O)C(=O)N1CCC[C@H]1C(=O)N[C@@H](CO)C(=O)N[C@@H](CO)C(=O)NCC(=O)N[C@@H](C)C(=O)N1CCC[C@H]1C(=O)N1CCC[C@H]1C(=O)N1CCC[C@H]1C(=O)N[C@@H](CO)C(=O)O)C(C)C [Compound A9] (H-YSHGTFTSDYSKYLD[Aib]KRAQEFV[Aib]WLEEEPSSGAPPPS-OH; N-terminus assumed)	< 9.00
CC(C)C[C@H](NC(=O)[C@H](Cc1c[nH]c2ccccc12)NC(=O)[C@H](CCCCN)NC(=O)[C@H](CO)NC(=O)[C@H](Cc1ccc(O)cc1)NC(=O)[C@H](CC(=O)O)NC(=O)[C@H](CO)NC(=O)[C@@H](NC(=O)[C@H](Cc1ccccc1)NC(=O)[C@@H](NC(=O)CNC(=O)[C@H](Cc1c[nH]cn1)NC(=O)[C@H](CO)NC(=O)[C@@H](N)Cc1ccc(O)cc1)[C@@H](C)O)[C@@H](C)O)C(=O)N[C@@H](CC(=O)O)C(=O)NC(C)(C)C(=O)N[C@@H](C)C(=O)N[C@@H](CCCNC(=N)N)C(=O)N[C@@H](C)C(=O)N[C@@H](CCC(N)=O)C(=O)N[C@@H](CCC(=O)O)C(=O)N[C@@H](Cc1ccccc1)C(=O)N[C@H](C(=O)NC(C)(C)C(=O)N[C@@H](Cc1c[nH]c2ccccc12)C(=O)N[C@@H](CC(C)C)C(=O)N[C@@H](CCC(=O)O)C(=O)N[C@@H](CC(=O)O)C(=O)N[C@@H](CCC(=O)O)C(=O)N1CCC[C@H]1C(=O)N[C@@H](CO)C(=O)N[C@@H](CO)C(=O)NCC(=O)N[C@@H](C)C(=O)N1CCC[C@H]1C(=O)N1CCC[C@H]1C(=O)N1CCC[C@H]1C(=O)N[C@@H](CO)C(=O)O)C(C)C [Compound A18] (H-YSHGTFTSDYSKWLD[Aib]ARAQEFV[Aib]WLEDEPSSGAPPPS-OH; N-terminus assumed)	< 9.00
